The assay addresses T1, Diacylglycerol O-acyltransferase 2 (Homo sapiens, UniProt Q96PD7).
T1 sequence (Q96PD7 whole entry): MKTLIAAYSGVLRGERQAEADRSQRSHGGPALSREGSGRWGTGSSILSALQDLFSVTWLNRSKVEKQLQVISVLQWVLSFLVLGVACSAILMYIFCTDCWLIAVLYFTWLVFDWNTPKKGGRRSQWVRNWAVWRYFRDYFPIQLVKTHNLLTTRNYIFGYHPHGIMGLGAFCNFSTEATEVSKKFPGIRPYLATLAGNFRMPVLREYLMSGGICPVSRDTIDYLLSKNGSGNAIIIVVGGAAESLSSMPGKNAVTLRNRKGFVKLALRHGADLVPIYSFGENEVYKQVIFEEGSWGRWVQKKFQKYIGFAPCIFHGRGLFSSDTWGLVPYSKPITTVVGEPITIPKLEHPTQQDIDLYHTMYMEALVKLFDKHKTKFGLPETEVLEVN
The assay can be described thus: DGAT2 enzymatic activity assay. As for the experimental part:
DGAT2 activity was determined by measuring the amount of enzymatic product 13Ci8-triolein (13C-l,2,3-Tri(cis-9-octadecenoyl)glycerol) using the membrane prep mentioned above. The assay was carried out in ABgene 384-well assay plates in a final volume of 25 pL at rt. The assay mixture contained the following: assay buffer (100 mM Tris Cl, pH 7.0, 20 mM MgCl2, 5% ethanol), 25 pM of di olein, 5 μM of 13C oleoyl-CoA and 8 ng/pL of DGAT2 membrane.

This is an account of results in BindingDB's records for patent WO2022076495 (MERCK SHARP & DOHME CORP., 2022).

The IC50 is the concentration that inhibits the measured activity by half. Low values mean greater potency, high ones weaker potency.

In turn, `CC(C)n1c(=O)n(-c2cccc(OC(F)F)c2)c2ncc(C(=O)NC3(C)CCS(=O)(=O)CC3)cc21` [WO2022076495, EXAMPLE 88] gave an IC50 of 62 nM.

As for `CC(C)n1c(=O)n(-c2cc(OC(F)F)ccc2F)c2ncc(C(=O)NC3(C)CCS(=O)(=O)CC3)cc21` [WO2022076495, EXAMPLE 103], the midpoint of inhibition, the IC50, lay at 74 nM.

In the case of `CC(C)n1c(=O)n(-c2cc(OC(F)F)ncc2F)c2cc(F)c(C(=O)NC3(C)CCS(=O)(=O)CC3)cc21` [WO2022076495, EXAMPLE 115], the IC50 stood at 4.1 nM.

In the case of `CC(C)n1c(=O)n(-c2cc(OC(F)(F)C(F)F)ncc2F)c2cc(F)c(C(=O)NC3(C)CCS(=O)(=O)CC3)cc21` [WO2022076495, EXAMPLE 118], the IC50 was 5.5 nM.
